Laboratory results: patent US9290570B2, “Pan-ELR+ CXC Chemokine Antibodies” (Eli Lilly and Company, priority 2013, dated 2016)

Key:
[1] = system: SKOV3-Luc ovarian cancer cells; assay: SKOV3-Luc ovarian cancer xenograft model; type: in vivo, mice; details: cisplatin 2.5 mg/kg, Antibody 1 20 mg/kg once a week intraperitoneal
Procedure: SKOV3-Luc is a human ovary cancer cell line that expresses firefly luciferase gene. SKOV3-Luc cells are often used in vivo to establish human ovarian adenocarcinoma tumor growth.
SKOV3-Luc ovarian cancer cells were mixed 1:1 with matrigel and implanted subcutaneously in the right rear flank of athymic nude female mice at 3.0×10^6 cells per injection. Mice were randomized into 4 groups at baseline according to tumor volume after the xenografts were grown to an average tumor volume of 200 mm^3 Mice received either control IgG4 antibody (2.5 mg/kg once a week), cisplatin (2.5 mg/kg once a week), Antibody 1 (20 mg/kg once a week), or a combination of cisplatin (2.5 mg·kg once a week) and Antibody 1 (20 mg/kg once a week) by intraperitoneal injection.

human CXCR2 = target: T1, human CXCR2 (Homo sapiens, UniProt P25025); assay: U937-huCXCR2 FLIPR activity of wild type and mutant human CXCL8; type: cell-based; details: activity of the CXCL8 variant itself on U937-huCXCR2 cells
T1 construct: expressed in transfected cells; host or cells: U937 monocytic cell line, retrovirally transduced (U937-huCXCR2)
T1 sequence (P25025 1-360): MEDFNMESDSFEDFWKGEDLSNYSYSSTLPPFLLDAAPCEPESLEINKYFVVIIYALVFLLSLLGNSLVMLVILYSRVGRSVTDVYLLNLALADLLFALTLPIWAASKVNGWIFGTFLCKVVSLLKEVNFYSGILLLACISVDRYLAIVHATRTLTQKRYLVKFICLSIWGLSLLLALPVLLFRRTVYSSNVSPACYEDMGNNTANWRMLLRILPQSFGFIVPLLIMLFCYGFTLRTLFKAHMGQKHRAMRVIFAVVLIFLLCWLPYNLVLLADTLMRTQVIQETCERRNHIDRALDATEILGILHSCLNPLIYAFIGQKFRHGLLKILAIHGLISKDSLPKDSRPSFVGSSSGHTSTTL
Procedure: Wild type and mutant human CXCL8 are tested for biologic activity and for neutralization by Antibody 1 using the U937-huCXCR2 assay. U937-huCXCR2 is a monocytic cell line transduced with retrovirus for expression of human CXCR2. A description of the U937-huCXCR2 assay is found below under Neutralizing Assays.
CXCL8 mutants are serially diluted in Assay Buffer containing 0.2% BSA in wells of v-bottom 96-well polypropylene plates. Ligand concentrations are 3 times the final assay concentration (final assay concentrations range from 300 to 0.0051 nM). A cell plate and a ligand plate are loaded into a Fluorescent Imaging Plate Reader (FLIPR-3, Molecular Devices) programmed to transfer 50 μL of ligand to wells of the cell plate. Fluorescence is recorded at 1 second intervals for 90 seconds. The change in fluorescence [delta relative fluorescence units (DRFU), Max RFU-Min RFU] is calculated from images 10 to 90. DRFU versus log (ligand concentration) is plotted and EC50 values are determined by nonlinear regression using Graph Pad Prism. Assays are performed in triplicate over three assay plates.

Row | Molecule | tumor growth inhibition compared to isotype control [1] | U937 FLIPR activity (EC50) (human CXCR2)
1 | N.N.[Cl][Pt][Cl] [Cisplatin, cisplatin] | did not show statistically significant tumor growth inhibition | 
2 | R6A: R6A point mutant of human CXCL8 (SEQ ID NO: 27) [Antibody R6A] |  | Not Active
